# Values of other authors, collected in patent US8673945B2, “Solid pharmaceutical composition comprising amlodipine and losartan” (Hanmi Science Co., Ltd, priority 2009, dated 2014).
smiles,measurement,value
"CCCCc1nc(Cl)c(CO)n1Cc1ccc(-c2ccccc2-c2nn[nH]n2)cc1 [losartan, 2-butyl-4-chloro-1-[[2′-(1H-tetrazol-5-yl)[1,1′-biphenyl]-4-yl]methyl]-1H-imidazol-5-methanol]",reduction of Cmax of losartan after food ingestion,about 10%
